{"source": "patent US9492470B2", "about": "“Use of HMGA-targeted phosphorothioate DNA aptamers to suppress carcinogenic activity and increase sensitivity to chemotherapy agents in human cancer cells” (MIAMI UNIVERSITY, priority 2012, dated 2016)", "key": {"Miapaca-2 cells [1]": {"tested_on": "Miapaca-2 cells", "assay": "Cell viability (crystal violet) after sDNA transfection, Miapaca-2", "format": "cell-based, Human", "conditions": "for cells dead compared to UT: versus untransfected (UT) cells", "procedure": "The absorbance was measured at 570 nm in quadruplicate. All data from control cells were combined and averaged."}, "Miapaca-2 cells [2]": {"tested_on": "Miapaca-2 cells", "assay": "Cell growth with gemcitabine treatment after sDNA transfection, Miapaca-2", "format": "cell-based, Human", "conditions": "for IC50: Homo sapiens, MIA PaCa-2, 96 h"}, "AsPC-1 cells [3]": {"tested_on": "AsPC-1 cells", "conditions": "for cells dead compared to UT: versus untransfected (UT) cells", "method": "AsPC-1 cells were grown in Roswell Park Memorial Institute medium supplemented with 10% FBS, and 1% penicillin-streptomycin.\nTransfections using sDNA at concentrations of 0.1 and 0.25 μg per well were conducted with 5×10^4 and 1×10^5 Miapaca-2 and AsPC-1 cells, respectively, in 24-well plates and all data were collected in quadruplicate. Miapaca-2 and AsPC-1 cells were transfected with sDNA using Lipofectamine 2000 (Invitrogen,™ Life Technologies Corporation, Carlsbad, Calif.) according to the manufacturer's protocol.\nBriefly, AsPC-1 cells grown in 10% FBS containing RPIM medium were trypsinized using a trypsin-EDTA solution commercially available from the Sigma-Aldrich, and used to seed fresh media in a 24-well plate with 10^5 cells per well.\nAfter 48 hours, the cells were transfected with the selected sDNA using Lipofectamine 2000 (Invitrogen,™ Life Technologies Corporation, Carlsbad, Calif.) according to the manufacturer's protocol. […] The cells were then fixed with 4% paraformaldehyde in PBS for 20 minutes and stained in 0.1% crystal violet stain (Sigma-Aldrich) for 30 minutes. The cells were washed under running tap water, air dried, and extracted with 0.2% Triton™ X-100 for 30 minutes. […] The absorbance of the Triton X-100 was measured at 570 nm using a HTS microplate reader. All results were analyzed for statistical significance using a student's unpaired t-test."}, "AsPC-1 cells [4]": {"tested_on": "AsPC-1 cells", "assay": "Cell growth with gemcitabine treatment after sDNA transfection, AsPC-1", "format": "cell-based, Human", "conditions": "for Fold change in numbers of viable cells normalized relative to TC: AsPC-1, 0.1 ug sDNA", "procedure": "(§1) Cells were fixed after 96 hours and numbers of viable cells counted by measuring the absorbance at 570 nm.\n(§2) Cells were transfected with 0.1 μg of TC-sDNA, Mix-sDNA, CG-sDNA, and AT-sDNA."}, "Miapaca-2 cells [5]": {"tested_on": "Miapaca-2 cells", "assay": "Cell growth with gemcitabine treatment after sDNA transfection, Miapaca-2", "format": "cell-based, Human", "conditions": "96 hours; for Fold change in numbers of viable cells normalized relative to TC: Miapaca-2, 0.1 ug sDNA", "procedure": "as §1, §2"}, "AsPC-1 cells [6]": {"tested_on": "AsPC-1 cells", "assay": "Cell growth with gemcitabine treatment after sDNA transfection, AsPC-1", "format": "cell-based, Human", "conditions": "for Fold change in numbers of viable cells, TC cells with gemcitabine: AsPC-1, TC (no sDNA), 96 hours"}, "[7]": {"tested_on": "HMGA1 expression levels in AsPC-1 cells", "assay": "Western blot of HMGA1 expression levels in AsPC-1 nuclear extracts", "format": "cell-based, Human", "conditions": "AsPC-1, 100 nM gemcitabine, 48 hours", "procedure": "Cytoplasmic and nuclear protein extracts were prepared from pancreatic cancer cells using NE-PER extraction kit (Thermo Scientific, Rockford, Ill.). Protein concentrations were determined using a bicinchoninic acid assay with bovine serum albumin as a standard. Nuclear proteins that contained 25 or 15 μg total protein were separated by SDS-PAGE with a 4%-20% Criterion gradient gel (Bio-Rad Laboratories, Inc., Hercules, Calif.). The proteins were transferred to immuno-blot PVDF membrane (0.2 μm) (Bio-Rad Laboratories, Inc., Hercules, Calif.) and blocked in 5% dry milk in PBS supplemented with 0.2% Tween 20 (PBST). The PVDF membranes were then probed with 1:1000 dilution of rabbit anti-HMGA1 antibody (Santa Cruz Biotechnology Inc, Santa Cruz, Calif.) and 1:100 dilution of rabbit anti-HMGA2 antibody (Abcam plc, Cambridge, Mass.), in 3% BSA in PBST at 4° C. overnight. After three washes with PBST, the membrane was blotted with secondary antibody, ant-rabbit IgG-HRP (cell signaling) 1:5000 dilution in 1% dry milk in PBST at room temperature for 1 hour. An enhanced chemiluminescence detection (ECL, GE Healthcare Life Sciences, Piscataway, N.J.) system was used to detect target proteins. To ensure equal loading of the proteins between groups, membranes were re-probed with anti-TATA binding protein antibody (Abcam plc, Cambridge, Mass.). […] The control was nuclear extract from untreated cells. Triplicates of each sample were run on the gel and analyzed with the Alpha Imager. The relative HMGA1 densities were obtained by dividing HMGA 1 density by TBP density. […] TATA binding protein (TBP) was used as a loading control. […] HMGA1 expression levels were examined after transfection with CG-sDNA or AT-sDNA to determine if the transfection procedure affected HMGA1 expression levels. The AT-sDNA used for transfection contained an 18 adenine/thymine stretch enabling HMGA1 to bind the DNA with all three AT-hooks. As a negative control, a non-HMGA1-targeted sDNA containing an equal length of DNA but with no AT-stretches, i.e. CG-sDNA, was used. […]"}, "[8]": {"conditions": "Miapaca-2, 0.1 μg sDNA, 96 h after transfection"}, "[9]": {"conditions": "AsPC-1, 0.1 μg sDNA, 96 h after transfection"}}, "note": "Like-named read-outs stand apart in the source and are kept apart here. In the oligonucleotide strings, read from the 5' end, every base follows the letter of its sugar. An asterisk marks phosphorothioate; unmarked linkages are phosphodiester. Other units and linkages are bracketed, terminal groups are in braces. A string of capitals states the bases alone. d = 2'-deoxy (DNA)", "data": [{"compound": "Mix-sDNA: random phosphorothioate DNA (SEQ ID NO: 13), control lacking a HMGA-specific binding sequence (DNA dC*dC*dC*dA*dC*dT*dG*dC*dA*dG*dT*dC*dG*dG*dA*dC*dT*dC*dA*dC*dT*dC*dG*dC)", "values": [{"measurement": "cells dead compared to UT", "setting": "Miapaca-2 cells [1]; Miapaca-2, 0.1 ug sDNA, 48 hrs", "result": 30.4, "unit": "%"}, {"measurement": "Fold change in numbers of viable cells between TC and sDNA transfected cells (in parentheses)", "setting": "Miapaca-2 cells [1]; [8]", "result": "(1.07) fold"}, {"measurement": "Fold change in numbers of viable cells between UT and transfected cells", "setting": "Miapaca-2 cells [1]; [8]", "result": "−1.45", "unit": "fold"}, {"measurement": "cells dead compared to UT", "setting": "Miapaca-2 cells [1]; Miapaca-2, 0.1 ug sDNA, 96 hrs", "result": 33.3, "unit": "%"}, {"measurement": "difference in cell viability between TC cells and sDNA transfected cells", "setting": "Miapaca-2 cells [1]; Miapaca-2, 0.1 ug sDNA, both 48 and 96 hours", "result": "no significant differences"}, {"measurement": "Fold change in numbers of viable cells normalized relative to TC", "setting": "Miapaca-2 cells [2]; Miapaca-2, 0.1 ug sDNA, Gemcitabine 1 nM, 96 hours", "result": 1.12, "unit": "fold"}, {"measurement": "cells dead compared to UT", "setting": "AsPC-1 cells [3]; AsPC-1, 0.1 ug sDNA, 48 hrs", "result": 28.0, "unit": "%"}, {"measurement": "Fold change in numbers of viable cells between TC and sDNA transfected cells (in parentheses)", "setting": "AsPC-1 cells [3]; [9]", "result": "(−1.14) fold"}, {"measurement": "Fold change in numbers of viable cells between UT and transfected cells", "setting": "AsPC-1 cells [3]; [9]", "result": "−1.24", "unit": "fold"}, {"measurement": "cells dead compared to UT", "setting": "AsPC-1 cells [3]; AsPC-1, 0.1 ug sDNA, 96 hrs", "result": 19.4, "unit": "%"}, {"measurement": "difference in cell viability between TC cells and sDNA transfected cells", "setting": "AsPC-1 cells [3]; AsPC-1, 0.1 ug sDNA, both 48 and 96 hours", "result": "no significant differences"}, {"measurement": "Fold change in numbers of viable cells normalized relative to TC", "setting": "AsPC-1 cells [4]; Gemcitabine 0 nM, 96 hours", "result": "−1.14", "unit": "fold"}, {"measurement": "Fold change in numbers of viable cells normalized relative to TC", "setting": "AsPC-1 cells [4]; Gemcitabine 1 nM, 96 hours", "result": "−1.06", "unit": "fold"}, {"measurement": "Fold change in numbers of viable cells normalized relative to TC", "setting": "AsPC-1 cells [4]; Gemcitabine 10 nM, 96 hours", "result": "−1.16", "unit": "fold"}, {"measurement": "Fold change in numbers of viable cells normalized relative to TC", "setting": "AsPC-1 cells [4]; Gemcitabine 30 nM, 96 hours", "result": "−1.17", "unit": "fold"}, {"measurement": "Fold change in numbers of viable cells normalized relative to TC", "setting": "AsPC-1 cells [4]; Gemcitabine 100 nM, 96 hours", "result": "−1.36", "unit": "fold"}, {"measurement": "Fold change in numbers of viable cells normalized relative to TC", "setting": "AsPC-1 cells [4]; Gemcitabine 1000 nM, 96 hours", "result": "−1.59", "unit": "fold"}, {"measurement": "cells dead / change in cell viability", "setting": "Miapaca-2 cells [5]; Miapaca-2, 0.1 μg sDNA, 1 nM gemcitabine", "result": "no significant change"}, {"measurement": "cells surviving", "setting": "Miapaca-2 cells [5]; Miapaca-2, 0.1 μg sDNA, 10 nM gemcitabine, normalized to 0 nM gemcitabine", "result": 94.5, "unit": "%"}, {"measurement": "Fold change in numbers of viable cells normalized relative to TC", "setting": "Miapaca-2 cells [5]; Gemcitabine 0 nM", "result": 1.07, "unit": "fold"}, {"measurement": "Fold change in numbers of viable cells normalized relative to TC", "setting": "Miapaca-2 cells [5]; Gemcitabine 10 nM", "result": 1.01, "unit": "fold"}, {"measurement": "Fold change in numbers of viable cells normalized relative to TC", "setting": "Miapaca-2 cells [5]; Gemcitabine 30 nM", "result": "−2.65", "unit": "fold"}, {"measurement": "Fold change in numbers of viable cells normalized relative to TC", "setting": "Miapaca-2 cells [5]; Gemcitabine 100 nM", "result": "−4.41", "unit": "fold"}, {"measurement": "Fold change in numbers of viable cells normalized relative to TC", "setting": "Miapaca-2 cells [5]; Gemcitabine 1000 nM", "result": "−4.48", "unit": "fold"}]}, {"compound": "Nc1ccn([C@@H]2O[C@H](CO)[C@@H](O)C2(F)F)c(=O)n1", "note": "[Gemcitabine, gemcitabine]", "values": [{"measurement": "Fold change in numbers of viable cells, TC cells with gemcitabine", "setting": "AsPC-1 cells [6]; Gemcitabine 10 nM", "result": "−1.02", "unit": "fold"}, {"measurement": "Fold change in numbers of viable cells, TC cells with gemcitabine", "setting": "AsPC-1 cells [6]; Gemcitabine 100 nM", "result": "−1.36", "unit": "fold"}, {"measurement": "Fold change in numbers of viable cells, TC cells with gemcitabine", "setting": "AsPC-1 cells [6]; Gemcitabine 1000 nM", "result": "−1.52", "unit": "fold"}, {"measurement": "IC50", "setting": "AsPC-1 cells [6]; Homo sapiens, ASPC1, 96 h, read-out: Gemcitabine IC50 in transfection control (TC) cells, AsPC-1, TC (no sDNA), 0.25 μg column, 96 hours", "result": 0.0248, "unit": "µM"}, {"measurement": "IC50", "setting": "Miapaca-2 cells [2]; read-out: Gemcitabine IC50 in transfection control (TC) cells, Miapaca-2, TC (no sDNA), 0.1 μg column, 96 hours", "result": "0.0119 ± 0.0012", "unit": "µM"}, {"measurement": "IC50", "setting": "Miapaca-2 cells [2]; read-out: Gemcitabine IC50 in transfection control (TC) cells, Miapaca-2, TC (no sDNA), 0.25 μg column, 96 hours", "result": "0.0215 ± 0.0006", "unit": "µM"}, {"measurement": "change in cell viability, TC cells", "setting": "Miapaca-2 cells [2]; Miapaca-2, TC (no sDNA), 1 nM gemcitabine, 96 hours", "result": "no significant change"}, {"measurement": "cells surviving, TC cells", "setting": "Miapaca-2 cells [2]; Miapaca-2, TC (no sDNA), 10 nM gemcitabine, 96 hours", "result": 77.1, "unit": "%"}, {"measurement": "Fold change in numbers of viable cells, TC cells with gemcitabine", "setting": "Miapaca-2 cells [2]; Miapaca-2, TC (no sDNA), Gemcitabine 1 nM, 96 hours", "result": 1.00, "unit": "fold"}, {"measurement": "Fold change in numbers of viable cells, TC cells with gemcitabine", "setting": "Miapaca-2 cells [2]; Miapaca-2, TC (no sDNA), Gemcitabine 10 nM, 96 hours", "result": "−1.30", "unit": "fold"}, {"measurement": "Fold change in numbers of viable cells, TC cells with gemcitabine", "setting": "Miapaca-2 cells [2]; Miapaca-2, TC (no sDNA), Gemcitabine 100 nM, 96 hours", "result": "−3.59", "unit": "fold"}, {"measurement": "Fold change in numbers of viable cells, TC cells with gemcitabine", "setting": "Miapaca-2 cells [2]; Miapaca-2, TC (no sDNA), Gemcitabine 1000 nM, 96 hours", "result": "−3.47", "unit": "fold"}, {"measurement": "Fold change in numbers of viable cells, TC cells with gemcitabine", "setting": "AsPC-1 cells [4]; AsPC-1, TC (no sDNA), Gemcitabine 30 nM, 96 hours", "result": "−1.04", "unit": "fold"}, {"measurement": "IC50", "setting": "AsPC-1 cells [4]; Homo sapiens, ASPC1, 96 h, read-out: Gemcitabine IC50 in transfection control (TC) cells, AsPC-1, TC (no sDNA), 0.1 μg column, 96 hours", "result": 0.028, "unit": "µM"}, {"measurement": "Fold change in numbers of viable cells, TC cells with gemcitabine", "setting": "Miapaca-2 cells [5]; Miapaca-2, TC (no sDNA), Gemcitabine 30 nM", "result": "−3.21", "unit": "fold"}, {"measurement": "change in HMGA1 expression levels after gemcitabine", "setting": "[7]", "result": "no change"}]}]}
